Test results reported in ChEMBL document CHEMBL1240370, “Effects of immunomodulatory and organism-associated molecules on the permeability of an in vitro blood-brain barrier model to amphotericin B and fluconazole” (Antimicrob Agents Chemother, 2010).

Tests used:
Assay type in all cases: ADME, cell-based, Bos taurus
Settings in all cases: cattle, c6, 24 h
[1] = Permeability across BBMEC cocultured with rat C6 cell BBB model after 24 hrs in presence of 0.1 ug/ml TNF
[2] = Permeability across BBMEC co-cultured with rat C6 cell BBB model after 24 hrs in presence of 0.01 ug/ml interleukin-1
[3] = Permeability across BBMEC cocultured with rat C6 cell BBB model after 24 hrs in presence of 0.1 ug/ml interleukin-2
[4] = Permeability across BBMEC cocultured with rat C6 cell BBB model after 24 hrs in presence of 1 ug/ml lipopolysaccharide
[5] = Permeability across BBMEC cocultured with rat C6 cell BBB model after 24 hrs in presence of 0.1 ug/ml lipopolysaccharide
[6] = Permeability across BBMEC cocultured with rat C6 cell BBB model after 24 hrs in presence of 0.1 ug/ml lipoteichoic acid
[7] = Permeability across BBMEC cocultured with rat C6 cell BBB model after 24 hrs in presence of 1 ug/ml Dexamethasone
[8] = Permeability across BBMEC cocultured with rat C6 cell BBB model after 24 hrs in presence of 0.1 ug/ml Dexamethasone
[9] = Permeability across BBMEC cocultured with rat C6 cell BBB model after 24 hrs in presence of 0.01 ug/ml tacrolimus-506
[10] = Permeability across BBMEC cocultured with rat C6 cell BBB model after 24 hrs in presence of 0.1 ug/ml tacrolimus-506
[11] = Permeability across BBMEC cocultured with rat C6 cell BBB model after 24 hrs in presence of 0.01 ug/ml TNF

Measured: permeability

OC(Cn1cncn1)(Cn1cncn1)c1ccc(F)cc1F [FLUCONAZOLE]
permeable: all assays above
